These results are taken from patent US11207286B2, “Self-emulsifying composition of w3 fatty acid” (MOCHIDA PHARMACEUTICAL CO., LTD., priority 2009, dated 2021).

Data set [1] can be described thus: Pharmacokinetics in beagle. In kind it is in vivo. To be noted: male beagles fasted at least 18 hours, oral, 600 mg in terms of EPA-E, plasma EPA, corrected for pre-administration concentration. On the procedure: The compositions of the Examples 6, 7, 9, 10, 13, and Comparative Example 2 were orally administered to 3 to 8 male beagles (34 to 45 months old having a body weight of 11 to 17 kg, Kitayama Labes Co., Ltd.) under fasting, and time course blood EPA concentration was evaluated. The test animals were fasted at least for 18 hours before the test, and each animal was administered with the composition at an amount of 600 mg in terms of the EPA-E. The blood was collected before the administration and at 1, 1.5, 2, 2.5, 3, 4, 6, 8, and 24 hours after the administration, and after separating and treating the plasma, plasma EPA concentration was measured by LC/MS/MS. The EPA-E stock solution filled in a capsule was also administered to the control group animals. […] In calculating each parameter, the value was corrected by subtracting the blood EPA concentration before the administration from the blood concentration after the administration.

Data set [2] is described as follows: Pharmacokinetics in cynomolgus monkey. The following applies: cynomolgus monkeys fasted at least 12 hours, oral, 4.5 mg/kg in terms of EPA-E, plasma EPA. In kind it is in vivo. How it is done:
The compositions of the Example 6 was orally administered to 6 cynomolgus monkies (2 to 5 years having a body weight of 2.70 to 4.65 kg, Hamri Co., Ltd.) under fasting, and time course blood EPA concentration was evaluated. The test animals were fasted at least for 12 hours before the test, and each animal was administered with the self-emulsifying composition at an amount of 4.5 mg/kg in terms of the EPA-E. The EPA-E stock solution filled in a capsule was also administered to the control group animals. The blood was collected before the administration and at 1, 2, 4, 6, 8, 10, 12, 24, 48, and 72 hours after the administration, and after separating and treating the plasma, plasma EPA was measured by LC/MS/MS. […] In calculating each parameter, the value was corrected by subtracting the blood EPA concentration before the administration from the blood concentration after the administration.

Data set [3] relates to Fasted Glucose Tolerance Model Rat. The experiment in a line: Effectiveness in fasted glucose tolerance model rat. In kind it is in vivo, Sprague Dawley rats. To be noted: rats fasted at least 24 hours, oral capsule 100 mg/kg in terms of EPA-E, glucose 2 g/kg 30 minutes later. On the procedure:
Male Sprague Dawley rats (10 week old, Charles River Laboratories Japan, Inc.) are divided into 4 groups each comprising 10 animals with even body weight and serum TG value. Control group is administered with olive oil, EPA-E group is administered with EPA-E stock solution, Example group is administered with the self-emulsifying composition of Example 6, and comparative group is administered with the composition of Comparative Example 2 by filling in the gelatin capsule and perorally administering the capsule to the animals, respectively. The test animals are fasted at least 24 hours before the administration, and each animal is administered with the composition at an amount of 100 mg/kg in terms of the olive oil or the EPA-E. 30 minutes after the administration, glucose solution in physiological saline is orally administered at 2 g/kg. Blood is periodically collected from tail vein, and plasma TG concentration and free fatty acid concentration are measured by using a commercially available assay kit. Change from the value before the glucose loading is calculated for each parameter.

For data set [4] the following is noted: on rare occasion; cited from earlier work.

`CC/C=C\C/C=C\C/C=C\C/C=C\C/C=C\CCCC(=O)OCC` [EPA-E stock solution, Ethyl eicosapentaenoate ester] yielded an AUC0-2 in data set [1] (0 to 2 hours) of 14.4 µg·h/mL. Further, in data set [1] (0 to 24 hours), the AUC0-24 turned out to be 188.0 µg·h/mL. Further, the Cmax in data set [1] turned out to be 16600 ng/mL. The same molecule displayed an AUC0-12 in data set [2] (0 to 12 hours, corrected) of 46.5 µg·h/mL. The same molecule displayed an AUC0-72 in data set [2] (0 to 72 hours, corrected) of 284.5 µg·h/mL. In data set [2] (corrected for pre-administration concentration), this molecule had a Cmax of 7400 ng/mL. Besides, the “increase in plasma TG concentration after the glucose loading” value in data set [3] was “not observed”. In data set [4], the “side effect: nausea” value is on record as 0.23%, the “side effect: stomach discomfort” value is reported as 0.23% and the “side effect: vomiturition” value is reported as 0.21%.
